Values quoted from earlier work, collected in patent US20090176772A1, “METHOD OF REVERSING LEFT VENTRICULAR REMODELING” (priority 2004, published 2009).

Test system: LV reverse remodeling
Settings: historical data, Sabbah et al. (1994) Circ. 89:2852-2859; cited from earlier work

Row | SMILES | Ability to reduce LV end-diastolic volume (FIG. 1) | Ability to reduce LV end-systolic volume (FIG. 2)
1 | CCOC(=O)[C@H](CCc1ccccc1)N[C@@H](C)C(=O)N1CCC[C@H]1C(=O)O [enalapril] | neither ranolazine, enalapril, nor metoprolol were independently able to reduce LV end-diastolic volume | neither ranolazine, enalapril, nor metoprolol appear to independently reduce LV end-systolic volume
2 | COCCc1ccc(OCC(O)CNC(C)C)cc1 (stereo not shown) [metoprolol] | neither ranolazine, enalapril, nor metoprolol were independently able to reduce LV end-diastolic volume | neither ranolazine, enalapril, nor metoprolol appear to independently reduce LV end-systolic volume
